The results in this text go back to patent publication US8338450B2, “Compounds as dipeptidyl peptidase IV (DPP IV) inhibitors” (Lupin Limited, priority 2007, dated 2012).

Each structure is given as a SMILES string. Where a name gives a salt, the structure may show the parent alone. Read-outs that look alike come from different tables or passages of the source.

One data set concerns C57BL/6J mice. The experiment in a line: Oral glucose tolerance test in male C57BL/6J mice. It is filed as in vivo. The conditions noted are these: 3 mg/kg, p.o., oral glucose load 5 g/kg 1 h after compound, glucose AUC 0-120 min vs vehicle. The method, then: B. Oral Glucose Tolerance Test in Male C57BU6J Mice
Overnight-fasted male […] mice were challenged 1 h, 4 h and 8 h after either vehicle or compound administration with an oral glucose load of 5 g/kg in three different groups of animals. Blood samples for glucose measurement were obtained by tail bleed at predose, before glucose load and at serial time points after the glucose load, to evaluate the efficacy and duration of effect on glucose tolerance test. […] Improvement in glucose tolerance in compound-treated animals was estimated by comparing with vehicle-treated animals.
Table 3 provides data for the antihyperglycemic activity of selected compounds in C57BL/6J mice, as determined by oral glucose tolerance test.

In a further data set the target is T1, human recombinant DPP-IV (Homo sapiens, UniProt P27487).
T1 construct: purchased R&D Systems, USA (or produced in-house)
The experiment in a line: Inhibition of human recombinant DPP-IV (Gly-Pro-AMC hydrolysis, fluorometric). It is filed as biochemical. As to conditions: for IC50: human recombinant DPP-IV, 50 μM Gly-Pro-AMC, 30 min at 30° C. The method in brief:
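Enzyme (10 ng) was preincubated 15 min at 30° C. with compound (10 and 100 nM screen; 8 concentrations 0.1-1000 nM) in Tris-HCl pH 7.4, NaCl, KCl, BSA. 50 μM Gly-Pro-AMC was added for 30 min at 30° C. and AMC fluorescence was read (ex 360/em 460 nm). Results are given as % inhibition versus vehicle or as IC50.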

Another data set concerns the target T2, plasma DPP-IV (Rattus norvegicus, UniProt P14740).
T2 construct: from tissue; host or cells: EDTA-plasma of male Wistar rats dosed orally
The experiment in a line: Measurement of plasma DPP-IV activity in male Wistar rats after single oral dose. The conditions noted are these: p.o.; for Plasma DPP-IV Inhibition (%) 4 h / Plasma DPP-IV Inhibition (%) 6 h / Plasma DPP-IV Inhibition (%) 8 h / inhibition at 3 mg/kg: 3 mg/kg; for inhibition at 3 mg/kg / inhibition at 10 mg/kg: rat, po. It is filed as in vivo. The method, then: Overnight-fasted male animals were administered either vehicle or single oral doses of compounds. Blood samples were withdrawn from retro-bulbar venous plexus under anesthesia at several time points up to 24 h post-dose. EDTA-plasma was separated and DPP-IV activity was measured using a fluorometric assay. Assays were carried out in 96-well flat-bottom black microwell plates. A typical reaction contained 25 μl plasma, 50 μl of 50 μM substrate (Gly-Pro-AMC) and 25 μl assay buffer (25 mM Tris-HCl, pH 7.4, 140 mM NaCl, 10 mM KCl and 1% BSA) in a total reaction volume of 100 μl. Plasma samples were incubated with the substrate for 30 min at 30° C., following which the fluorescence was measured in a microplate fluorescence redaer (POLARstar Galaxy), with excitation and emission wavelengths set at 360 nm and 460 nm, respectively. Percent inhibition in plasma DPP-IV activity due to compounds was calculated by comparing with plasma from vehicle-treated animals.

Setting [1] is: 4 h post-dose, read-out: Plasma DPP-IV Inhibition (%) 4 h.
The mark [2] stands for this setting: 6 h post-dose, read-out: Plasma DPP-IV Inhibition (%) 6 h.
Where [3] appears, read: 8 h post-dose, read-out: Plasma DPP-IV Inhibition (%) 8 h.

T1 sequence (P27487 whole entry): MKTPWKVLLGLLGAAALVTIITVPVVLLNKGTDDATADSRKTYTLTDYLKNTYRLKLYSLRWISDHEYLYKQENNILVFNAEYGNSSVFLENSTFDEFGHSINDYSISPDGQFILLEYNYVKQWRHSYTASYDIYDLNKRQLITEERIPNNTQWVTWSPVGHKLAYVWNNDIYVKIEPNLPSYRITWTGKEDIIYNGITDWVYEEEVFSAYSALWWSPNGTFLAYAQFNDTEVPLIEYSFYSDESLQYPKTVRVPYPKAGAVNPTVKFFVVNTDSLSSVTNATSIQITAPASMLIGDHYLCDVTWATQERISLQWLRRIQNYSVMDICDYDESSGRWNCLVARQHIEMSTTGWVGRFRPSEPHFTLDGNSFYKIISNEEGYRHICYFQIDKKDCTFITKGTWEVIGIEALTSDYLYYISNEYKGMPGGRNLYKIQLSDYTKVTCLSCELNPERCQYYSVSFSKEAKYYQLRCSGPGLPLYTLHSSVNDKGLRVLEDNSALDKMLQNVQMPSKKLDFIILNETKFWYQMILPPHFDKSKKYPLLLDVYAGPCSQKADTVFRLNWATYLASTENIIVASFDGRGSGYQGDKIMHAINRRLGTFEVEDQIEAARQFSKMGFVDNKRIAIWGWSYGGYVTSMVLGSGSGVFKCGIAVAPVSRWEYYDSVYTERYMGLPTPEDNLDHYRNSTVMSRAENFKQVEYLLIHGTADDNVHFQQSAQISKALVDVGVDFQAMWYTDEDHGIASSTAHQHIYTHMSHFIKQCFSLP
T2 sequence (P14740 37-767 limits assumed): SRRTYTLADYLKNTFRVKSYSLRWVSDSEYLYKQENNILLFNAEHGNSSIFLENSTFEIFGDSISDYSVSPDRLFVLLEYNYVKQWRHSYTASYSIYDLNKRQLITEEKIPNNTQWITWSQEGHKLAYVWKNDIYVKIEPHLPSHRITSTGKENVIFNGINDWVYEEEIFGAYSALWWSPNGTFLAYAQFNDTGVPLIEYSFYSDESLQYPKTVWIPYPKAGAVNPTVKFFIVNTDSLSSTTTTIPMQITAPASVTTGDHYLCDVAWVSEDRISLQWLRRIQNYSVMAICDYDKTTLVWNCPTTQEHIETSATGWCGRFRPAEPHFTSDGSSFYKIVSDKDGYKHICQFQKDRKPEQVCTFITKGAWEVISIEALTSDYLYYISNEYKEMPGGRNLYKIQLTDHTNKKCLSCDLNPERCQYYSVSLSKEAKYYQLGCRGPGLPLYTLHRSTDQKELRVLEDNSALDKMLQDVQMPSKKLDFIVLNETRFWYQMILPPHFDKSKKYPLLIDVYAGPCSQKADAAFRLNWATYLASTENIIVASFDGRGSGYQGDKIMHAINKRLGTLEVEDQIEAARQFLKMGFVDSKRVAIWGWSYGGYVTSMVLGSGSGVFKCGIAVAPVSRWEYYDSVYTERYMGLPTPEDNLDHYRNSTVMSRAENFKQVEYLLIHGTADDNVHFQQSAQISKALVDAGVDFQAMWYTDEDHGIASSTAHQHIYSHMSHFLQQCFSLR

On to `C#C[C@H]1CC[C@@H](C#N)N1C(=O)[C@@H](N)C1CC2CCC(C1)N2C(=O)c1ccc2c(c1)OCO2.O=C(O)C(F)(F)F` (stereo partly drawn) [Compound 67, (2S,5R)-1-{(2S)-2-Amino-2-[8-(benzo[1,3]dioxole-5-carbonyl)-8-aza-bicyclo[3.2.1]oct-3-yl]-exo-ethanoyl}-5-ethynyl-pyrrolidin-2-carbonitrile trifluoroacetic acid salt], for which the “Improvement in Glucose Tolerance (%) 1 h” value with C57BL/6J mice worked out at 50%. Also, the IC50 on human recombinant DPP-IV is 7.68 nM. For the same molecule, at plasma DPP-IV (4 h post-dose), the “Plasma DPP-IV Inhibition (%) 4 h” value amounted to 64%. For the same molecule, on plasma DPP-IV (6 h post-dose), the “Plasma DPP-IV Inhibition (%) 6 h” value is given as 36%. Moreover, the “Plasma DPP-IV Inhibition (%) 8 h” value at plasma DPP-IV (8 h post-dose) was 23%.
Consider `N#C[C@@H]1C[C@@H]2C[C@@H]2N1C(=O)[C@@H](N)C1CC2CCC(C1)N2C(=O)c1cnccn1.O=C(O)C(F)(F)F` (stereo partly drawn) [Compound 35, (1S,3S,5S)-2-{(2S)-2-Amino-2-[8-(pyrazine-2-carbonyl)-8-aza-bicyclo[3.2.1]oct-3-yl]-exo-ethanoyl}-2-azabicyclo[3.1.0]hexane-3-carbonitrile trifluoroacetic acid salt], for which the “Improvement in Glucose Tolerance (%) 1 h” value in the data set with C57BL/6J mice was determined as 46%. In addition, the IC50 on human recombinant DPP-IV was determined as 4.2 nM. The “Plasma DPP-IV Inhibition (%) 4 h” value at plasma DPP-IV (4 h post-dose) is given as 54%. In addition, the “Plasma DPP-IV Inhibition (%) 6 h” value at plasma DPP-IV (6 h post-dose) was found to be 42%. Besides, on plasma DPP-IV (8 h post-dose), the “Plasma DPP-IV Inhibition (%) 8 h” value is given as 33%.
For the molecule `C#C[C@H]1CC[C@@H](C#N)N1C(=O)[C@@H](N)C1CC2CCC(C1)N2C(=O)c1ccnc(F)c1` (stereo partly drawn) [Compound 66, (2S,5R)-1-{(2S)-2-Amino-2-[8-(2-fluoropyridin-4-carbonyl)-8-aza-bicyclo[3.2.1]-oct-3-yl]-exo-ethanoyl}-5-ethynyl-pyrrolidin-2-carbonitrile trifluoro acetic acid salt], in the data set with C57BL/6J mice, the “Improvement in Glucose Tolerance (%) 1 h” value is 48%. Besides, the IC50 on human recombinant DPP-IV is 8.24 nM. The inhibition at 3 mg/kg was determined as 56% at plasma DPP-IV (setting [1]), 38% on plasma DPP-IV (setting [2]) and 38% on plasma DPP-IV (setting [3]).
For `N#C[C@@H]1C[C@@H]2C[C@@H]2N1C(=O)[C@@H](N)C1CC2CCC(C1)N2C(=O)c1ccnc(F)c1` (stereo partly drawn) [Compound 28, (1S,3S,5S)-2-{(2S)-2-amino-2-[8-(2-fluoropyridine-4-carbonyl)-8-aza-bicyclo[3.2.1]-oct-3-yl]-exo-ethanoyl}-2-azabicyclo[3.1.0]-hexane-3-carbonitrile trifluoro acetic acid salt], the “Improvement in Glucose Tolerance (%) 1 h” value in the data set with C57BL/6J mice came out at 54%. The IC50 on human recombinant DPP-IV is 4.7 nM. In addition, the inhibition at 3 mg/kg at plasma DPP-IV (setting [1]) was determined as 51%; on plasma DPP-IV (setting [2]) it was 35%; on plasma DPP-IV (setting [3]), 28%. In addition, the inhibition at 10 mg/kg at plasma DPP-IV (setting [1]) was 77%; at plasma DPP-IV (setting [2]), 65%; at plasma DPP-IV (setting [3]), 53%.
Turning to `COC(=O)[C@@H]1CCCN1C(=O)[C@@H](N)C1CC2CCC(C1)N2C(=O)c1ccc(C(F)(F)F)cc1` (stereo partly drawn) [Compound 10, Methyl (2S)-1-{(2S)-2-amino-2-[8-(4-trifluoromethyl-benzoyl)-8-aza-bicyclo[3.2.1]oct-3-yl]-exo-ethanoyl}-pyrrolidin-2-carboxylate trifluoro acetic acid], the melting point is 173 to 175 °C. The inhibition at 1 µM at human recombinant DPP-IV (compound 1000 nM, relative to vehicle controls, read-out: % inhibition at 1000 nM) is 41%.
